Like-named read-outs stand apart in the source and are kept apart here.
Experiments:
[1] = tested on: LP-1, a human multiple myeloma cell line (IgG fucosylation); test: Fucosylation of LP-1-generated IgG, AOL dot blot; type: cell-based; settings: for activity at 100 µM: Homo sapiens, LP-1, 120 h, read-out: % of control fucosylated IgG value; for activity at 100 µM / % of control fucosylated IgG value: 5 days, AOL dot blot, multiple samples separated by semicolon; for activity at 100 µM / % of control fucosylated IgG value / inhibition of IgG fucosylation in human cells (decrease in AOL signal, dot blot): LP-1 cells; for % of control fucosylated IgG value / inhibition of IgG fucosylation in human cells (decrease in AOL signal, dot blot) / dot blot results (% fucose signal of control): 100 μM; for dot blot results (% fucose signal of control): LP-1-generated IgG
Protocol: To further evaluate the activities of different fucose analogs, 48 different fucose analogs and other four glycosylation inhibitors were tested for their ability to affect the fucosylation the LP-1-generated IgG. LP-1 cells (250,000 cells/mL, 3 mL per compound in 6-well plates) were incubated with 100 μM of each fucose analog for 5 days at 37° C. with a humidified atmosphere of 5% CO2 in IgG-depleted tissue culture media (90% RPMI with 10% IgG-depleted heat inactivated FBS). The IgG was isolated as described above using only 0.5 mL of MabSelect™ protein A resin slurry and one spin cup per sample with elution in 400 μL of IgG elution buffer into 25 μL of 9 M Tris buffer, pH 9. The eluates were concentrated to 10-20 μL per sample and 2 μL of each of the concentrated eluates were dotted onto a nitrocellulose membrane and stained with Ponceau S to estimate and adjust the sample loading for AOL staining. From this estimation of total protein in each sample, approximately 0.5 μg of each sample was dotted onto the membrane, air-dried, and stained with Ponceau S. An image of this stained membrane was captured using an Alpha Innotech FlourChem® Q system. The membrane was then blocked with 5% Bovine Serum Albumin (BSA) in Tris Buffered Saline (TBS) for 1 hr, washed with TBST (TBS with […]) 3 times and then incubated with 5 μg/ml biotinylated-AOL for 1 hr. The membrane was washed again with TBST 3 times, followed by Streptavidin-HRP incubation for 30 min and final washes with TBST 3 times.

[2] = tested on: antibody core fucosylation (CHO DG44 cell line producing humanized IgG1 anti-CD70 antibody h1F6); test: Inhibition of antibody core fucosylation in CHO DG44 cell culture producing h1F6; type: cell-based; settings: day 5, CHO DG44 h1F6; for Inhibition at 50 μM: 50 μM fucose analog; for Inhibition at 1 mM / inhibition at 1000 µM: 1 mM fucose analog
Protocol: Fucose analogs have been evaluated for their effect on antibody core fucosylation at concentrations of 50 μM and 1 mM generally as described in Published US Patent Application 2009-0317869. Briefly, the protocol was as follows: A CHO DG44 cell line producing a humanized IgG1 anti-CD70 monoclonal antibody, h1F6 (see International Patent Publication WO 06/113909) was cultured at 7.5×10^5 cells per mL in 2 mLs of CHO culture media at 37°, 5% CO2 and shaking at 100 RPM in a 6 well tissue culture plate. Media was supplemented with insulin like growth factor (IGF), penicillin, streptomycin and either 1 mM or 50 μM of the fucose analog. On day 5 post inoculation, the culture was centrifuged at 13000 RPM for 5 minutes to pellet the cells; antibodies were then purified from supernatant.
Antibody purification was performed by applying the conditioned media to protein A resin pre-equilibrated with 1× phosphate buffered saline (PBS), pH 7.4. After washing resin with 20 resin bed volumes of 1×PBS, antibodies were eluted with 5 resin bed volumes of Immunopure IgG elution buffer (Pierce Biotechnology, Rockford, Ill.). A 10% volume of 1M Tris pH 8.0 was added to neutralize the eluted fraction.

[3] = CHO-DG44, 120 h, read-out: Inhibition at 50 μM
[4] = 120 h, read-out: Inhibition at 50 μM

Compound: CC(=O)OC1CC(OC(C)=O)C(OC(C)=O)C(C)O1 (centres unmarked) [SGD-2108, 6-methyl-tetrahydro-2H-pyran-2,4,5-triyl triacetate]
- activity at 100 µM [1]: 104%
- Inhibition at 50 μM [2, 3]: 0%

Compound: COC(=O)[C@@H]1OC(OC(C)=O)[C@@H](OC(C)=O)[C@H](OC(C)=O)[C@@H]1OC(C)=O (some centres unmarked) [SGD-2061, 6-carboxymethyl ester fucose tetraacetate]
- % of control fucosylated IgG value [1]: 71 % of control

Compound: C#CC1OC(OC(=O)C(C)(C)C)C(O)C(OC(=O)C(C)(C)C)C1O (centres unmarked) [Alkynyl fucose di(trimethylacetate), 5-ethynylarabinose 1,3-(trimethylacetate)]
- Inhibition at 50 μM [2]: >80%

Compound: O=C1O[C@H]([C@@H](O)CO)[C@@H](O)[C@@H]1O [SGD-1931, L-galactono-1,4-lactone]
- activity at 100 µM [1]: 81%

Compound: CC(=O)OC1C(C)OC(OC(C)=O)C(F)(F)C1OC(C)=O (stereo not drawn) [2-deoxy-2,2-difluorofucopyranose triacetate (alpha)]
- Inhibition at 50 μM [2]: 0%
- Inhibition at 1 mM [2]: 64%

Compound: C#CC(OC(=O)CCCCC)[C@@H](OC(=O)CCCCC)[C@@H](OC(=O)CCCCC)[C@@H](C=O)OC(=O)CCCCC (some centres unmarked) [SGD-2012, 5-ethynylarabinose tetrahexanoate]
- activity at 100 µM [1]: 67%
- Inhibition at 50 μM [2, 3]: > 80%
- inhibition at 1000 µM ([2]; CHO-DG44, 120 h): > 80%

Compound: CC(=O)OC1O[C@@H](C(C)C)[C@@H](OC(C)=O)[C@@H](OC(C)=O)[C@@H]1OC(C)=O (stereo partly drawn) [SGD-1977, (3S,4R,5R,6S)-6-isopropyltetrahydro-2H-pyran-2,3,4,5-tetrayl tetraacetate]
- activity at 100 µM [1]: 79%

Compound: C#CC1OC(OC(=O)C(C)(C)C)C(OC(=O)C(C)(C)C)C(OC(=O)C(C)(C)C)C1O (centres unmarked) [Alkynyl fucose 1,2,3-(trimethylacetate), 5-ethynylarabinose 1,2,3-(trimethylacetate)]
- Inhibition at 50 μM [2]: ~0%

Compound: 5-carboxamido fucose tetraacetate [SGD-1995]
- % of control fucosylated IgG value [1]: 79 % of control

Compound: alkynyl fucose tetra PEG ester [SGD-2057]
- % of control fucosylated IgG value [1]: 64 % of control
- Inhibition at 50 μM [2]: >80%
- Inhibition at 1 mM [2]: >80%

Compound: C[C@H](O)[C@@H](O)[C@@H](O)[C@@H](O)C=O [SGD-2113, 6-deoxy-L-talose]
- activity at 100 µM [1]: 93%

Compound: CC(=O)OC(CCC#N)[C@@H](OC(C)=O)[C@@H](OC(C)=O)[C@@H](C=O)OC(C)=O (some centres unmarked) [SGD-2070, 5-(2-cyanoethyl)arabinose tetraacetate]
- activity at 100 µM [1]: 51%

Compound: C#C[C@@H]1OC(OC(=O)CC)[C@@H](OC(=O)CC)[C@H](OC(=O)CC)[C@@H]1OC(=O)CC (some centres unmarked) [SGD-2010, 5-ethynylarabinose tetrapropropanoate]
- % of control fucosylated IgG value [1]: 1.5 % of control
- inhibition of IgG fucosylation in human cells (decrease in AOL signal, dot blot) [1]: potentially strong inhibitors
- Inhibition at 50 μM [2]: >80%
- Inhibition at 1 mM [2]: >80%

Compound: alkynyl fucose tetraisobutanoate [SGD-2043]
- % of control fucosylated IgG value [1]: 34 % of control
- Inhibition at 50 μM [2]: >80%
- Inhibition at 1 mM [2]: >80%

Compound: CC(=O)OC(C#N)[C@H]1OC(OC(C)=O)[C@@H](OC(C)=O)[C@@H]1OC(C)=O (some centres unmarked) [5-cyanoarabinofuranose tetraacetate]
- Inhibition at 50 μM [2, 4]: 5 to 10%

Compound: CC(=O)OC1C(C)OC(OC(C)=O)C(F)(F)C1OC(C)=O (stereo not drawn) [2-deoxy-2,2-difluorofucopyranose triacetate (beta)]
- Inhibition at 50 μM [2]: 0%
- Inhibition at 1 mM [2]: 75%

Compound: CC(=O)O[C@@H]1[C@H](OC(C)=O)[C@H](C)OC(F)[C@H]1F (some centres unmarked) [SGD-2082, 1,2-difuloro fucose diacetate]
- % of control fucosylated IgG value [1]: 87 % of control
- Inhibition at 50 μM [2]: >80%
- Inhibition at 1 mM [2]: >80%

Compound: CC(=O)O[C@@H]([C@@H](C=O)OC(C)=O)[C@H](OC(C)=O)C(C)(C)OC(C)=O [SGD-1964, 5-methylketo fucose tetraacetate]
- inhibition of IgG fucosylation in human cells (decrease in AOL signal, dot blot) [1]: potentially strong inhibitors
- activity at 100 µM [1]: 5%
- dot blot results (% fucose signal of control) [1]: 5 % fucose signal of control

Compound: 5-epoxy fucose tetraacetate [SGD-2020]
- % of control fucosylated IgG value [1]: 5 % of control
- inhibition of IgG fucosylation in human cells (decrease in AOL signal, dot blot) [1]: potentially strong inhibitors
- dot blot results (% fucose signal of control) [1]: 5 % fucose signal of control

Compound: O[C@H]1[C@H](O)[C@@H](O)CN2CC[C@H](O)[C@H]12 [SGD-1960, castanospermine, reference compound]
- activity at 100 µM [1]: 300%

Compound: CCC(=O)[C@H](OC(C)=O)[C@@H](OC(C)=O)[C@@H](OC(C)=O)[C@@H](C=O)OC(C)=O [SGD-2067, 6-keto-6-ethyl fucose tetraacetate]
- inhibition of IgG fucosylation in human cells (decrease in AOL signal, dot blot) [1]: potentially strong inhibitors
- activity at 100 µM [1]: 3%
- dot blot results (% fucose signal of control) [1]: 3 % fucose signal of control

Compound: C#CCNC[C@H](O)[C@@H](O)[C@@H](O)[C@H](O)C=O [SGD-1950, 6-propargylamino fucose]
- activity at 100 µM [1]: 40%

Compound: alkynyl fucose tetranicotinate [SGD-2047]
- % of control fucosylated IgG value [1]: 50 % of control
- Inhibition at 50 μM [2]: >80%
- Inhibition at 1 mM [2]: >80%

Compound: 6-alkyne-6-acetoxy fucose tetraacetate [SGD-2004]
- % of control fucosylated IgG value [1]: 29 % of control

Compound: CC(=O)OC(CC(=O)O)[C@@H](OC(C)=O)[C@@H](OC(C)=O)[C@@H](C=O)OC(C)=O (some centres unmarked) [SGD-1959, 5-carboxymethyl arabinose tetraacetate]
- activity at 100 µM [1]: 94%
- Inhibition at 50 μM [2, 4]: 30%
- inhibition at 1000 µM ([2]; 120 h): > 80%

Compound: benzyloxy fucose tetraacetate [SGD-2048]
- % of control fucosylated IgG value [1]: 114 % of control
- Inhibition at 50 μM [2]: 0%
- Inhibition at 1 mM [2]: 75%

Compound: CC(=O)OC1OC(C#N)[C@@H](OC(C)=O)[C@@H](OC(C)=O)[C@@H]1OC(C)=O (some centres unmarked) [5-cyanoarabinopyranose tetraacetate]
- Inhibition at 50 μM [2, 4]: 20%

Compound: CO[C@@H]1O[C@@H](C)[C@@H](O)[C@@H](O)[C@@H]1O [SGD-1932, Methyl a-L-fucopyranoside]
- % of control fucosylated IgG value [1]: 87 % of control

Compound: O=C[C@H](O)[C@@H](O)[C@@H](O)[C@H](O)CS [SGD-2025, 6-thio galactose pentaacetate]
- activity at 100 µM [1]: 44%

Compound: CC(=O)OC1COC(C)C(OC(C)=O)C1OC(C)=O (centres unmarked) [SGD-2081, 1-deoxy fucose triacetate]
- % of control fucosylated IgG value [1]: 70 % of control

Compound: CC(=O)OC1C=COC(C)C1OC(C)=O (centres unmarked) [SGD-2080, 1,2-dideoxy-1,2-dehydro fucose diacetate]
- % of control fucosylated IgG value [1]: 159 % of control

Compound: CC(=O)OC1OC(CCl)[C@@H](OC(C)=O)[C@@H](OC(C)=O)[C@@H]1OC(C)=O (stereo partly drawn) [6-chloro-fucose tetraacetate, (3S,4R,5S)-6-(chloromethyl)tetrahydro-2H-pyran-2,3,4,5-tetrayl tetraacetate]
- Inhibition at 50 μM [2, 3]: 20%
- inhibition at 1000 µM ([2]; CHO-DG44, 120 h): 20 to 30%

Compound: CC(=O)OC1OC(CI)[C@@H](OC(C)=O)[C@@H](OC(C)=O)[C@@H]1OC(C)=O (stereo partly drawn) [6-iodo-fucose tetraacetate, (3S,4R,5S)-6-(iodomethyl)tetrahydro-2H-pyran-2,3,4,5-tetrayl tetraacetate]
- Inhibition at 50 μM [2, 3]: 3%
- inhibition at 1000 µM ([2]; CHO-DG44, 120 h): 30%

Compound: CC(=O)OC[C@@H](OC(C)=O)[C@H](OC(C)=O)[C@H](OC(C)=O)[C@H](C=O)OC(C)=O [SGD-2074, D-galactose pentaacetate]
- activity at 100 µM [1]: 118%

Reference: US9504702B2, “Methods of inhibition of protein fucosylation in vivo using fucose analogs” (Seattle Genetics, Inc., priority 2010, dated 2016)
